Where two headings read alike, the source gives them in different places. Blank lines part the entries; values can stand above or below the molecule they belong to. Numbered stars: 1 amine (or outer) side, 2 acyl side, 3 side chain; on linkers, the order of the positions; unused ones are H or OH. Square brackets hold non-standard residues; d marks the D form. Peptide text beside a SMILES is read from it. * marks the point of attachment. 5FAM = O=C1OC2(c3ccc(O)cc3Oc3cc(O)ccc32)c2ccc(C(=O)*)cc21; NHCH2C6H4(4-CH2CONH2) = NC(=O)Cc1ccc(CN*)cc1; X1 = O=C(Cc1ccc(CN[*:1])cc1)[*:2]
Key:
cRaf/K-Ras (G12V) PPI = biological target: T1, cRaf/K-Ras (G12V) PPI (Homo sapiens, UniProt P01116, G12V); assay: K-Ras-cRaf HTRF-based PPI profiling; assay type: biochemical; conditions: for blank corrected HTRF: raw data; for % Binding: relative to DMSO controls;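 as to blank corrected HTRF: background is the signal of wells with all components except cRaf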
T1 construct: b-Kras G12V (GppNHp) (aa 2-169); biotin (b-
Experimental: In some experimental embodiments, a buffer was added to the assay wells which included […] HEPES pH 7.4, 150 mM NaCl, 5 mM MgCl2, 1 mM DTT, 0.005% NP40, and 1% DMSO. 5 uL of 3×K-Ras protein was then added to the assay wells, followed by the synthetic compounds which were added using acoustic technology (ECHO, Labcyte) followed by thirty minutes incubation at room temperature. Afterwards, 5 uL of 3×cRaf protein was added to the assay wells and 5 uL of detection mix was then added to the assay wells after 30 minutes. The detection mix included Mab anti-GST-Tb cryptate (Cisbio 61GSTTLB) and streptavidin-XL665 (Ex/Em=(337/665; 620) in PHERAstar (BMG Labtech)). HTRF signal was measured […] later.
The data includes raw data (signal-background without cRaf protein but with all other component), % binding (relative to DMSO controls), and curve fits. Curve fits were performed when the activities at the highest concentration of the synthetic compounds were less than 65%. Tables 18A-18B below includes the raw data (e.g., blank corrected HTRF) and Tables 19A-19B includes the % binding.

K-Ras = biological target: T2, K-Ras (Homo sapiens, UniProt P01116, G12V); assay: MST binding affinity of resynthesized NNP hits to K-Ras; conditions: read-out: KD (nM) [95% conf. int]; MST; NNP1 library hit; target K-Ras; one-site binding model
T2 construct: purchased Cytoskeleton Inc. CS-RS04
Experimental: Loading was performed according to the following protocol: The 200 μM stock solution of the target protein was diluted to 10 μM in 20 mM HEPES pH 8.0, 150 mM NaCl, 10 mM MgCl2, 1 mM TCEP, 0.05% Tween-20 (total volume 110 μL). 10 μL were set aside for later labeling quality control. EDTA pH 8.0 (stock concentration 10 mM) was added to the protein solution to a final concentration of 80 μM. GTP (stock concentration 50 mM) was added to the protein solution to a final concentration of 750 μM. The solution was incubated at 30° C. for 2 hours (PCR tube) and then placed on ice for 2 minutes. MgCl2 was added to the protein solution to a final concentration of 100 mM. The resulting protein solution was buffer exchanged into the buffer required in the labeling kit for labeling. […] All the other target molecules (TNFα, IL-6, IL-6R and ASGPR) were used as received without any additional treatment.
Hit binding affinity to various targets were determined using Microscale Thermophoresis (MST). MST experiments were performed on a Monolith NT.115pico (NanoTemper Technologies GmbH, Munich, Germany). Measurements were performed at room temperature, in triplicate with incubation periods of 15, 30 and 45 minutes. […] Targets were labeled using Nanotemper Monolith 2nd Generation Protein Labeling Kits. RED-MALEIMIDE (Maleimide-647-dye) labeling kit was used for K-Ras and RED-NHS (NHS-647-dye) labeling kit was used for IL-6, IL-6R, TNFα and ASGPR. The buffer for the ASGPR contained 20 mM HEPES pH 7.4, 150 mM NaCl, 10 mM MgCl2, 2 mM CaCl2, 0.05% Pluronic F-127, and 1 mM DTT; for IL-6 contained 20 mM HEPES pH 7.4, 150 mM KCl, 10 mM MgCl2, and 0.1% Pluronic F-127; for the soluble IL-6 receptor 20 mM HEPES pH 7.4, 150 mM NaCl, 10 mM MgCl2, and 0.05% Tween-20; for K-Ras 20 mM HEPES pH 7.4, 150 mM NaCl, 10 mM MgCl2, 0.05% Tween-20 and 1 mM DTT; for TNFα 10 mM HEPES pH 7.4, 150 mM NaCl, 10 mM MgCl2, 0.05% Polysorbate-20. Triplicate data was analyzed using MO.AffinityAnalysis software (NanoTemper Technologies GmbH).

IC50 (cRaf/K-Ras (G12V) PPI; 1% DMSO in reaction, compounds without fluorescein, 30 nM K-Ras G12V, 10 nM GST-cRaf, 30 min pre-incubation, read-out: K-Ras G12V Compound IC50): 1600 nM
IC50 (cRaf/K-Ras (G12V) PPI; 10-concentration IC50 mode, 3-fold serial dilution, K-Ras G12V 30 nM, GST-cRaf 10 nM, read-out: IC50): 1600 nM
HillSlope (cRaf/K-Ras (G12V) PPI; curve fit of % binding, K-Ras G12V 30 nM, GST-cRaf 10 nM): −0.5508
blank corrected HTRF (cRaf/K-Ras (G12V) PPI; conc. 1.67E−05): 2409
blank corrected HTRF (cRaf/K-Ras (G12V) PPI; conc. 1.85E−06): 6562
blank corrected HTRF (cRaf/K-Ras (G12V) PPI; conc. 2.06E−07): 10050
blank corrected HTRF (cRaf/K-Ras (G12V) PPI; conc. 2.29E−08): 12784
blank corrected HTRF (cRaf/K-Ras (G12V) PPI; conc. 2.54E−09): 13013
blank corrected HTRF (cRaf/K-Ras (G12V) PPI; conc. 5.00E−05): 2344
blank corrected HTRF (cRaf/K-Ras (G12V) PPI; conc. 5.56E−06): 4849
blank corrected HTRF (cRaf/K-Ras (G12V) PPI; conc. 6.17E−07): 8628
blank corrected HTRF (cRaf/K-Ras (G12V) PPI; conc. 6.86E−08): 11886
blank corrected HTRF (cRaf/K-Ras (G12V) PPI; conc. 7.62E−09): 13422
% Binding (cRaf/K-Ras (G12V) PPI; conc. 1.67E−05): 17.36%
% Binding (cRaf/K-Ras (G12V) PPI; conc. 1.85E−06): 47.29%
% Binding (cRaf/K-Ras (G12V) PPI; conc. 2.06E−07): 72.42%
% Binding (cRaf/K-Ras (G12V) PPI; conc. 2.29E−08): 92.13%
% Binding (cRaf/K-Ras (G12V) PPI; conc. 2.54E−09): 93.78%
% Binding (cRaf/K-Ras (G12V) PPI; conc. 5.00E−05): 16.9%
% Binding (cRaf/K-Ras (G12V) PPI; conc. 5.56E−06): 34.94%
% Binding (cRaf/K-Ras (G12V) PPI; conc. 6.17E−07): 62.18%
% Binding (cRaf/K-Ras (G12V) PPI; conc. 6.86E−08): 85.66%
% Binding (cRaf/K-Ras (G12V) PPI; conc. 7.62E−09): 96.73%
Structure (SMILES): Cn1cnc(Cn2ccc3ccc(CNCc4[nH]c5ccccc5c4[C@H]4NC(=O)c5ccc(O)cc54)cc32)c1 [BI-2852, reference compound]

Structure (SMILES): CC(C)[C@H](NC(=O)[C@@H](Cc1ccc(O)cc1)NC(=O)[C@@H](Cc1c[nH]cn1)NC(=O)[C@H]1CCCN1C(=O)[C@@H](Cc1c[nH]c2ccccc12)NC(=O)c1ccc2c(c1)C(=O)OC21c2ccc(O)cc2Oc2cc(O)ccc21)C(=O)NCc1ccc(CC(=O)NCC(=O)N[C@@H](C(=O)N2CCC[C@@H]2C(=O)N[C@H](CCCNC(=N)N)C(=O)N[C@@H](C)C(=O)NCc2ccc(CC(=O)N3CCC[C@@H]3C(=O)N[C@H](CO)C(=O)N[C@H](CCC(=O)O)C(=O)N[C@H](CCCNC(=N)N)C(=O)NCC(=O)NCc3ccc(CC(=O)N4CCC[C@@H]4C(=O)N[C@H](CCCCN)C(=O)N[C@H](Cc4ccc(O)cc4)C(=O)N[C@H](CCCNC(=N)N)C(=O)N[C@@H](Cc4ccccc4)C(=O)NCc4ccc(CC(=O)N5CCC[C@@H]5C(=O)NCC(=O)N[C@H](CCCNC(=N)N)C(=O)N[C@H](Cc5c[nH]c6ccccc56)C(=O)NCC(=O)NCc5ccc(CC(=O)N[C@H](Cc6ccc(O)cc6)C(=O)N6CCC[C@@H]6C(=O)N[C@H](CCCNC(=N)N)C(=O)N[C@H](CCC(=O)O)C(=O)NCC(=O)NCc6ccc(CC(N)=O)cc6)cc5)cc4)cc3)cc2)C(C)C)cc1 [KRAS-1-2] (5FAM-[dW][dP][dH][dY]V[X1]G[dV][dP][dR]A[X1][dP][dS][dE][dR]G[X1][dP][dK][dY][dR]F[X1][dP]G[dR][dW]G[X1][dY][dP][dR][dE]G-{NHCH2C6H4(4-CH2CONH2)})
Kd (K-Ras): 49 nM

Structure (SMILES): CC(C)C[C@@H](NC(=O)c1ccc2c(c1)C(=O)OC21c2ccc(O)cc2Oc2cc(O)ccc21)C(=O)N1CCC[C@@H]1C(=O)N[C@H](CCC(=O)O)C(=O)N[C@H](CO)C(=O)N[C@@H](Cc1ccccc1)C(=O)NCc1ccc(CC(=O)NCC(=O)N[C@@H](C(=O)N2CCC[C@@H]2C(=O)N[C@H](CCCNC(=N)N)C(=O)N[C@@H](C)C(=O)NCc2ccc(CC(=O)N3CCC[C@@H]3C(=O)N[C@H](CO)C(=O)N[C@H](CCC(=O)O)C(=O)N[C@H](CCCNC(=N)N)C(=O)NCC(=O)NCc3ccc(CC(=O)N4CCC[C@@H]4C(=O)N[C@H](CCCCN)C(=O)N[C@H](Cc4ccc(O)cc4)C(=O)N[C@H](CCCNC(=N)N)C(=O)N[C@@H](Cc4ccccc4)C(=O)NCc4ccc(CC(=O)N[C@H](CCCNC(=N)N)C(=O)N[C@H](Cc5ccc(O)cc5)C(=O)N[C@@H](C(=O)N[C@H](CCC(=O)O)C(=O)N[C@@H](C)C(=O)NCc5ccc(CC(=O)NCC(=O)N[C@H](Cc6c[nH]c7ccccc67)C(=O)N[C@H](Cc6c[nH]cn6)C(=O)N[C@H](CCCNC(=N)N)C(=O)N[C@@H](C)C(=O)NCc6ccc(CC(N)=O)cc6)cc5)[C@H](C)O)cc4)cc3)cc2)C(C)C)cc1 [KRAS-1-3] (5FAM-[dL][dP][dE][dS]F[X1]G[dV][dP][dR]A[X1][dP][dS][dE][dR]G[X1][dP][dK][dY][dR]F[X1][dR][dY][dT][dE]A[X1]G[dW][dH][dR]A-{NHCH2C6H4(4-CH2CONH2)})
Kd (K-Ras): 18 nM

Structure (SMILES): CC(C)[C@H](NC(=O)[C@@H](Cc1ccc(O)cc1)NC(=O)[C@@H](Cc1c[nH]cn1)NC(=O)[C@H]1CCCN1C(=O)[C@@H](Cc1c[nH]c2ccccc12)NC(=O)c1ccc2c(c1)C(=O)OC21c2ccc(O)cc2Oc2cc(O)ccc21)C(=O)NCc1ccc(CC(=O)N2CCC[C@@H]2C(=O)N[C@H](CO)C(=O)NCC(=O)N[C@H](CO)C(=O)N[C@@H](C)C(=O)NCc2ccc(CC(=O)N3CCC[C@@H]3C(=O)N[C@H](CO)C(=O)N[C@H](CCC(=O)O)C(=O)N[C@H](CCCNC(=N)N)C(=O)NCC(=O)NCc3ccc(CC(=O)N4CCC[C@@H]4C(=O)N[C@H](CCCCN)C(=O)N[C@H](Cc4ccc(O)cc4)C(=O)N[C@H](CCCNC(=N)N)C(=O)N[C@@H](Cc4ccccc4)C(=O)NCc4ccc(CC(=O)N5CCC[C@@H]5C(=O)NCC(=O)N[C@H](CCCNC(=N)N)C(=O)N[C@H](Cc5c[nH]c6ccccc56)C(=O)NCC(=O)NCc5ccc(CC(=O)N[C@H](Cc6ccc(O)cc6)C(=O)N6CCC[C@@H]6C(=O)N[C@H](CCCNC(=N)N)C(=O)N[C@H](CCC(=O)O)C(=O)NCC(=O)NCc6ccc(CC(N)=O)cc6)cc5)cc4)cc3)cc2)cc1 [KRAS-1-5] (5FAM-[dW][dP][dH][dY]V[X1][dP][dS]G[dS]A[X1][dP][dS][dE][dR]G[X1][dP][dK][dY][dR]F[X1][dP]G[dR][dW]G[X1][dY][dP][dR][dE]G-{NHCH2C6H4(4-CH2CONH2)})
Kd (K-Ras): 75 nM

Structure (SMILES): CC(C)C[C@H](NC(=O)[C@@H](CCC(=O)O)NC(=O)[C@H](NC(=O)[C@H]1CCCN1C(=O)[C@@H](CCC(=O)O)NC(=O)c1ccc2c(c1)C(=O)OC21c2ccc(O)cc2Oc2cc(O)ccc21)[C@H](C)O)C(=O)NCc1ccc(CC(=O)NCC(=O)N[C@@H](C(=O)N2CCC[C@@H]2C(=O)N[C@H](CCCNC(=N)N)C(=O)N[C@@H](C)C(=O)NCc2ccc(CC(=O)N3CCC[C@@H]3C(=O)N[C@H](CO)C(=O)N[C@H](CCC(=O)O)C(=O)N[C@H](CCCNC(=N)N)C(=O)NCC(=O)NCc3ccc(CC(=O)N4CCC[C@@H]4C(=O)N[C@H](CCCCN)C(=O)N[C@H](Cc4ccc(O)cc4)C(=O)N[C@H](CCCNC(=N)N)C(=O)N[C@@H](Cc4ccccc4)C(=O)NCc4ccc(CC(=O)N[C@H](CCCNC(=N)N)C(=O)N[C@H](Cc5ccc(O)cc5)C(=O)N[C@@H](C(=O)N[C@H](CCC(=O)O)C(=O)N[C@@H](C)C(=O)NCc5ccc(CC(=O)NCC(=O)N[C@H](Cc6c[nH]c7ccccc67)C(=O)N[C@H](Cc6c[nH]cn6)C(=O)N[C@H](CCCNC(=N)N)C(=O)N[C@@H](C)C(=O)NCc6ccc(CC(N)=O)cc6)cc5)[C@H](C)O)cc4)cc3)cc2)C(C)C)cc1 [KRAS-1-10] (5FAM-[dE][dP][dT][dE]L[X1]G[dV][dP][dR]A[X1][dP][dS][dE][dR]G[X1][dP][dK][dY][dR]F[X1][dR][dY][dT][dE]A[X1]G[dW][dH][dR]A-{NHCH2C6H4(4-CH2CONH2)})
Kd (K-Ras): 60 nM

Source: patent US20230393140A1, “BINDING ASSAYS INVOLVING A PLURALITY OF SYNTHETIC COMPOUNDS, TARGETS, AND COUNTER TARGETS” (SRI International, priority 2020, published 2023)
